Three compounds from US10774049B2, “PU.1 inhibitors” (Albert Einstein College of Medicine, priority 2016, dated 2020) can be followed below.

One test addresses λB promoter DNA sequence. Nature of the test: SPR binding of compounds to immobilized λB promoter DNA. Also noted: species or system murine. To be noted: biosensor-SPR, 1:1 complex. As for the experimental part: FIG. 8A-8C depicts (A) DB2313 synthesis (B-C) Representative SPR sensorgrams for compounds binding to the immobilized λB promoter DNA sequence: (B) DB2313 (KD=7±2 nM) and (C) DB1976 (KD=5±2 nM) as previously described (Munde et al., 2014). The solid black lines are best fit values for global kinetic fitting of the results with a single binding site function. Similar experiments with DB2115 gave a KD=1±2 nM. The plots are for the SPR signal (RU) versus time from injection of the compound over the sensorchip. From 0 to 180 seconds, compound is being injected (association) and after that only buffer flows over the chip. (B) From top to bottom: 10, 30, 40 nM. (C) From top to bottom: 5, 10, 15 nM.
To test whether these heterocyclic diamidines targeted cognate DNA binding sites for PU.1, we assessed binding to the λB motif by biosensor-surface plasmon resonance (SPR). Duplex DNA harboring the λB motif was immobilized on a streptavidin functionalized sensor chip with a dextran surface as described. The DNA was 5′-end labeled with biotin and captured on the sensor chip. Based on the known strong AT selectivity of these heterocyclic diamidines, they are expected to bind to the AT rich λB promoter sequence at the 5′ side of the 5′-GGAA-3′ PU.1 conserved recognition sequence. Sensorgrams obtained from the compounds-DNA association and disassociation reactions were used to determine equilibrium dissociation constants. The KD values indicate strong binding by all three compounds to form a 1:1 complex, and a binding K^D of 1±2 nM for DB2115 and 4-7 nM for DB1976 and DB2313 with the λB promoter.

In test [1] the test system is PU.1 URE−/− AML cell line. Nature of the test: Cell viability/growth of PU.1 URE−/− AML cells. Type of test: cell-based, murine. To be noted: Mus musculus. The protocol:
(§1) FIG. 2A-2F. PU.1 inhibition decreases cell growth and increases apoptosis of PU.1^1″ leukemic cells. (A) Chemical structures of heterocyclic diamidines DB1976, DB2115 and DB2313 used in this study. (B) Relative cell viability of URE−/− cells and BAF3 cells after treatment with increasing concentrations of vehicle or small molecules. Cell viability was assessed after 48 h. Data represent means of technical triplicate from one representative experiment; fold change compared to Vehicle is shown. (C) Cell proliferation assay of URE−/− after treatment with DB1976 (n=5), DB2115 (n=3), DB2313 (n=3), of MOLM13 cells (n=3), and THP1 cells (n=3). Cell counting was performed every 24 h during 4 days. Data represent means±SD of technical triplicate from one representative experiment. Forward strand: SEQ ID NO:3, and Reverse strand: SEQ ID NO:4; derived from the λB motif from the murine Ig lambda 2-4 enhancer, a known native PU.1-dependent gene and specific binding site for PU.1. (D) Clonogenic capacities of URE−/− cells after treatment with DB1976 (n=5), DB2115 (n=3) and DB2313 (n=4) in the first plating, and after serial replatings (n=3). Data represent means±SD of technical triplicate from one representative experiment. (E) Apoptotic cells (Annexin-V+Dapi−) fraction in URE−/− cells after 48 h of treatment with DB1976 (n=6), DB2115 (n=6) and DB2313 (n=3). Data represent the means±SD of independent experiments; fold change compared to Vehicle is shown. *P<0.05, **P<0.01, ***P<0.001, ****P<0.0001 (F) Dose dependent inhibitor of PU.1-dependent transactivation.
To determine if our PU.1 inhibitors have an effect on PU.1^low-induced AML cells, we treated the PU.1 URE^−/− AML cell line with compounds at different concentrations. Treatment with the drugs led to a profound decrease in growth of PU.1 URE^−/− AML cells after 48 h whereas it had only minimal or no effects on control cells with normal PU.1 levels (BaF3), even at very high doses (FIG. 3A). […] Similar to our observations with PU.1-directed shRNAs, treatment with pharmacological PU.1 inhibitors led to a significant 1.6-, 2- and 3.5-fold increase of apoptotic cells with DB1976, DB2115 and DB2313, respectively, in murine PU.1 URE^−/− AML cells (FIG. 3C), and similar effects in human MOLM13 cells.

The test system of a further test is PU.1 URE−/− AML cells. Nature of the test: Apoptosis (Annexin-V+Dapi−) in PU.1 URE−/− AML cells. In kind it is cell-based. To be noted: murine PU.1 URE−/− AML cells, 48 h, vs vehicle. The protocol: as §1
To determine if our PU.1 inhibitors have an effect on PU.1^low-induced AML cells, we treated the PU.1 URE^−/− AML cell line with compounds at different concentrations. Treatment with the drugs led to a profound decrease in growth of PU.1 URE^−/− AML cells after 48 h whereas it had only minimal or no effects on control cells with normal PU.1 levels (BaF3), even at very high doses (FIG. 3A). […]

In the next test the test system is PU.1 transactivation. The test is described as follows: GFP reporter expression in bone marrow mononuclear cells of PU.1-GFP knock-in reporter mouse. Type of test: cell-based. The following applies: PU.1-GFP knock-in bone marrow mononuclear cells. From the text:
To assess on-target activity of our inhibitors in AML cells, we measured transcript levels of well-known PU.1 targets in PU.1 URE^−/− AML cells. It has been shown that PU.1 positively regulates Csf1r, Junb, and autoregulates itself, whereas it represses E2f1. In line with this, we found a decrease in Csf1r, Junb, and PU.1 transcript expression and an increase in E2f1 expression upon treatment with DB2115, or DB2313 (FIG. 4A, left panel). As Csf1r is one of the most sensitive PU.1 targets in myeloid cells, we assessed its expression at different time points (1 h, 4 h, 8 h and 24 h) after drug treatment. […] Furthermore, treatment of bone marrow mononuclear cells isolated from a PU.1-GFP knock-in reporter mouse model led to a decrease in GFP reporter expression after treatment with DB1976, DB2115, or DB2313, further confirming a direct effect of the compounds on PU.1 transactivation (FIG. 4B), and consistent with PU.1 positive autoregulation.

Setting [2] is: after 48 h, read-out: IC50 in PU.1 URE−/− AML.

Structures can show the parent of a compound that is named as a salt. Where two headings read alike, the source gives them in different places.

On to `N=C(N)c1ccc2nc(-c3ccc(-c4nc5ccc(C(=N)N)cc5[nH]4)[se]3)[nH]c2c1` [DB1976], for which the Kd at λB promoter DNA sequence amounted to 5 ± 2 nM. The IC50 in test [1] (setting [2]) stood at 25000 nM. For the same compound, in the test with PU.1 URE−/− AML cells, the “fold increase of apoptotic cells” value is given as 1.6 fold. In addition, in the test with PU.1 transactivation, the GFP reporter expression result is on record as “decrease”.

`N=C(N)c1ccc2nc(-c3ccc(OCCCCOc4ccc(-c5nc6ccc(C(=N)N)cc6[nH]5)cc4)cc3)[nH]c2c1` [DB2115] displayed a Kd at λB promoter DNA sequence of 1 ± 2 nM. Besides, in test [1] (setting [2]), the IC50 was 700 nM. The “fold increase of apoptotic cells” value in the test on PU.1 URE−/− AML cells worked out at 2 fold. Besides, the GFP reporter expression entry with PU.1 transactivation was “decrease”.

On to `CC(C)NC(=N)c1ccc2nc(-c3ccc(OCc4cccc(COc5ccc(-c6nc7ccc(C(=N)NC(C)C)cc7[nH]6)cc5)c4F)cc3)[nH]c2c1` [DB2313, 3-Bis{4[4(5)-N-isopropylamidinobenzimidazolyl]phenoxymethyl]}-2-fluorobenzene tetrahydrochloride], for which, on λB promoter DNA sequence, the dissociation constant Kd was 7 ± 2 nM. For the same compound, the IC50 in test [1] (setting [2]) and in test [1] (read-out: IC50 URE−/−) was 330 nM each time. In the test on PU.1 URE−/− AML cells, the “fold increase of apoptotic cells” value turned out to be 3.5 fold. In the test with PU.1 transactivation, the GFP reporter expression entry is “decrease”.
